Results reported in US20200085918A1, “COMPOSITIONS AND METHODS FOR TREATMENT OF UREMIC CARDIOMYOPATHY” (priority 2016, published 2020).

How the values were obtained:
ERK1/2 [1] = assay: ERK1/2 activation (phosphor-ERK/total ERK) in primary cardiac fibroblasts; assay type: cell-based, mouse
Description: (§1) Western Blotting Analysis: Cardiac (left ventricle) tissue samples and cardiac fibroblast homogenates were prepared and analyzed as was previously described for collagen-1 and other proteins. Assessment of protein carbonylation and activation of c-Src and ERK1/2 was performed as was described previously. Multiple exposures were analyzed to assure that the signals were within the linear range of the film. The signal density was determined using NIH ImageJ 1.48v software. Polyclonal antibody against type I collagen was from Southern Biotech (Birmingham, Ala.). Polyclonal anti-Src [pY418] phosphospecific antibody was from Invitrogen (Camarillo, Calif.). Monoclonal antibody against total c-Src was from Santa Cruz (Santa Cruz, Calif.). 2,4-dinitrophenylhydrazine (DNPH) and antibody against 2,4-dinitrophenyl (DNP) hydrazone derivatives were from Sigma-Aldrich.
(§2) Experimental design for in vitro experiment: C57BL/6 mouse primary cardiac fibroblast cells (purchased from Cell Biologics, Inc., Chicago, Ill.) were resuspended in complete fibroblast medium with supplements and 10% FBS (Cell Biologics, Inc.). The cultures were maintained at 37° C. in a 5% CO2 incubator and the medium was changed after 48 h and every 2-3 days thereafter. Cardiac fibroblast cells (passage 3-4) were grown until over confluent and were serum-starved (with 1% FBS) overnight before being used for the experiments. […]

collagen-1 [2] = assay: Collagen-1 expression in left ventricle homogenates (western blot), CoPP and pNaKtide study; assay type: in vivo, mouse; conditions: LV homogenates; PNx + CoPP 5 mg/kg BW ip; p<0.01 vs PNx
Description: as §1

collagen-1 [3] = assay type: cell-based, mouse
Description: as §1
Experimental design for in vitro experiment: C57BL/6 mouse primary cardiac fibroblast cells (purchased from Cell Biologics, Inc., Chicago, Ill.) were resuspended in complete fibroblast medium with supplements and 10% FBS (Cell Biologics, Inc.). The cultures were maintained at 37° C. in a 5% CO2 incubator and the medium was changed after 48 h and every 2-3 days thereafter. Cardiac fibroblast cells (passage 3-4) were grown until over confluent and were serum-starved (with 1% FBS) overnight before being used for the experiments. Cells were treated with or without TCB (100 nM) to determine procollagen-1 and HO-1 expression (24 h treatment), and c-Src activation and protein carbonylation (1 h treatment).

protein carbonylation [4] = assay: Protein carbonylation in left ventricle homogenates, CoPP and pNaKtide study; assay type: in vivo, mouse; conditions: PNx + CoPP 5 mg/kg BW ip; p<0.01 vs PNx
Description: as §1

ERK1/2 [5] = assay: ERK1/2 activation in left ventricle homogenates, CoPP and pNaKtide study; assay type: in vivo, mouse; conditions: PNx + CoPP 5 mg/kg BW ip, 4 weeks after PNx; p<0.01 vs PNx
Description: as §1

HO-1 [6] = assay: HO-1 expression in primary cardiac fibroblasts; assay type: cell-based, mouse; conditions: 24 h
Description: as §1, §2

[7] = system: PNx-induced cardiac fibrosis; assay: Cardiac fibrosis by Sirius Red/Fast Green staining, CoPP and pNaKtide study; assay type: in vivo, mouse; conditions: PNx + CoPP 5 mg/kg BW ip; p<0.01 vs. PNx
Description: Effects of CoPP and […] on PNx-induced cardiomyopathy: Cobalt protoporphyrin (CoPP, Frontier Scientific, Logan, Utah) was used to induct HO-1 expression and […] was used to block the Na/K-ATPase signaling function. […] Sirius Red/Fast Green staining: Histology staining for collagen fiber was performed on tissues harvested with Sirius Red/Fast Green Collagen Staining solutions (Sigma-Aldrich) according to the manufacturer's protocol. Tissues preparation, fixation, and data analysis were conducted as previously described.

PNx mice [8] = assay: Heart weight/body weight ratio, CoPP and pNaKtide study; assay type: in vivo, mouse; conditions: PNx + CoPP 5 mg/kg BW ip
Description: Nephrectomy Mouse Model: The PNx model included two-step surgeries. […] Step-two surgery was operated 7 days later, in which the right kidney was removed. For sham surgery, the two-step surgeries were performed in the same way as in the PNx group, without ligation of left kidney and removal of right kidney.
CoPP injections were given 5 days prior to, and on the day of, surgery, as well as every 5 days thereafter until sacrificing.

PNx mice [9] = assay: Renal function: plasma cystatin C, creatinine and BUN, CoPP and pNaKtide study; assay type: in vivo, mouse; conditions: PNx + CoPP 5 mg/kg BW ip
Description: Measurement of plasma cystatin C, creatinine and blood urea nitrogen (BUN): Mouse cystatin C ELISA kit and mouse creatinine kit were obtained from Crystal Chem. Inc. (Downers Grove, Ill.). Mouse BUN ELISA kit was obtained from MyBioSource Inc (San Diego, Calif.). The measurements were performed following manufacturers' instructions. Each sample was tested in duplicate.

[10] = system: PNx-induced cardiomyopathy, C57BL/6 mice; assay: Transthoracic echocardiography, PNx mice (effects of CoPP and pNaKtide on PNx-induced cardiomyopathy); assay type: in vivo, mouse; conditions: PNX + CoPP (5 mg/kg BW ip), n = 15, mean ± SE
Description: Experimental designs: Male C57BL/6 10-12 weeks were purchased from Hill Top Laboratories and housed in pathogen free animal facility in designated rooms equipped with cages that supply purified air under a 12 hour light/dark cycle. Food and water were supplied ad libitum. Animal protocol was approved by the Marshall University Institutional Animal Care and Use Committee. The number of animals in each group was determined by Power analysis using the following assumptions derived from a previous study with mice, with variance of 0.2 within the groups, power of 0.80, and alpha error of 0.05. Effects of CoPP and […] on PNx-induced cardiomyopathy: Cobalt protoporphyrin (CoPP, Frontier Scientific, Logan, Utah) was used to induct HO-1 expression and […] was used to block the Na/K-ATPase signaling function. […] Transthoracic Echocardiography: Transthoracic echocardiography was performed 24 hours before sacrifice. […] Mice in supine position were placed on a heating pad to keep the body temperature at 37° C. Body core temperature and ECG for physiological monitoring were obtained and manipulated by using a Visualsonics Mouse Handling Table (11436) and a rectal thermometer. Echocardiographic images were captured using MS400: 18-38 MHz operating frequency MicroScan transducer attached to a Vevo 1100 Imaging System (FUJIFILM VisualSonics Inc.). Warmed echo gel was placed between the probe and shaved chest. B-mode and M-mode images of the heart were obtained from parasternal long axis and short axis. PW Doppler and Color Doppler were obtained from basal short axis. The average values were calculated from at least four consecutive cardiac cycles. Left-ventricular end-diastolic area (EDA), end-systolic area (ESA), as well as main pulmonary artery diameter was measured from B-mode. End-diastolic diameters (EDD), end-systolic diameters (ESD), as well as anterior and posterior wall thickness (AWT & PWT) were captured from M-mode. Isovolumic contraction and relaxation time (IVCT & IVRT), ejection time (ET), as well as pulmonary velocity time integral (VTI) were obtained from PW and color Doppler.

c-Src [11] = assay: c-Src activation (pY418 c-Src/total c-Src) in primary cardiac fibroblasts; assay type: cell-based, mouse
Description: as §1, §2

TBARS = assay: Thiobarbituric acid reactive substances (TBARS) in treated PNx mice; assay type: in vivo, mouse; conditions: PNx + CoPP 5 mg/kg BW ip
c-Src [12] = assay: c-Src activation in left ventricle homogenates, CoPP and pNaKtide study; assay type: in vivo, mouse; conditions: PNx + CoPP 5 mg/kg BW ip, 4 weeks after PNx; p<0.01 vs PNx
Description: as §1

protein carbonylation [13] = assay: Protein carbonylation in primary cardiac fibroblasts; assay type: cell-based, mouse
Description: as §1, §2

HO-1 [14] = assay: HO-1 expression in left ventricle homogenates (western blot), CoPP and pNaKtide study; assay type: in vivo, mouse; conditions: CoPP 5 mg/kg BW ip
Description: as §1

[15] = CoPP 5 μM, 24 h pre-treatment, TCB 100 nM 1 h
[16] = TCB 100 nM, 1 h, cardiac fibroblasts

Compound: C=CC1=C(C)c2cc3[n-]c(cc4nc(cc5[n-]c(cc1n2)c(C)c5CCC(=O)[O-])C(CCC(=O)[O-])=C4C)c(C)c3C=C.[Co+2].[H+].[H+] [CoPP, cobalt protoporphyrin]
- TCB induced activation of ERK1/2 (ERK1/2 [1]; [15]): attenuated
- PNx-induced increases in cardiac collagen-1 expression (collagen-1 [2]): reduced
- collagen-1 expression at baseline (collagen-1 [3]; CoPP 5 μM, 24 h, no TCB, C57BL/6 mouse primary cardiac fibroblasts): did not significantly affect
- TCB induced increases in collagen-1 expression (collagen-1 [3]; CoPP 5 μM, 24 h pre-treatment, TCB 100 nM 24 h, p<0.01 vs TCB alone): significantly ameliorated
- PNx-induced protein carbonylation in LV homogenates (protein carbonylation [4]): reduced
- activation of ERK1/2 in LV homogenates (ERK1/2 [5]): attenuated
- HO-1 induction (HO-1 [6]; CoPP 5 μM, compared with TCB): considerably greater
- PNx-induced cardiac fibrosis, Sirius Red/Fast Green staining [7]: significantly attenuated
- increase in heart weight/body weight ratio with PNx (PNx mice [8]): not
- renal function as assessed by plasma cystatin C, creatinine, and BUN (PNx mice [9]): neither CoPP nor pNaKtide effected significant changes
- AWT, anterior wall thickness [10]: 0.65 ± 0.01^$$ mm
- CO, cardiac output [10]: 10.5 ± 0.3 mL/min
- EDA, end diastolic area [10]: 27.2 ± 0.6 mm^2
- EDD, end diastolic dimension [10]: 4.4 ± 0.1 mm
- EF, ejection fraction [10]: 60.0 ± 2.9%
- ESA, end systolic area [10]: 19.0 ± 0.1 mm^2
- ESD, end systolic dimension [10]: 3.2 ± 0.1 mm
- ET, ejection time [10]: 44 ± 1.0 ms
- FS, fractional shortening [10]: 26.8 ± 1.7%
- HR, heart rate [10]: 453 ± 11 beat/min
- IVCT + IVRT, isovolumic contraction time + isovolumic relaxation time [10]: 21 ± 0.7^$$ msec
- LVMI, left ventricle mass index [10]: 4.0 ± 0.1^$$
- PWT, posterior wall thickness [10]: 0.59 ± 0.02^$$ mm
- PaD, pulmonary artery dimension [10]: 1.0 ± 0.02 mm
- PaVTI, pulmonary artery Velocity time integral [10]: 29.9 ± 0.5^$
- TCB induced activation of c-Src (c-Src [11]; [15]): attenuated
- TBARS (TBARS): consistent with the carbonylation data
- activation of c-Src in LV homogenates (c-Src [12]): attenuated
- TCB induced protein carbonylation (protein carbonylation [13]; [15]): attenuated
- HO-1 expression in the LV homogenates (HO-1 [14]): induced HO-1 expression most profoundly

Compound: C[C@]12CC[C@H](O)C[C@@]1(O)CC[C@@H]1[C@@H]2CC[C@]2(C)[C@@H](c3ccc(=O)oc3)CC[C@]12O [TCB, telecinobufagin]
- activation of ERK1/2 (ERK1/2 [1]; [16]): induced activation
- type I collagen (collagen-1) expression (collagen-1 [3]; TCB 100 nM, 24 h, vs control, C57BL/6 mouse primary cardiac fibroblasts, p<0.01): induced increases
- HO-1 expression (HO-1 [6]; TCB 100 nM): increased
- activation of c-Src (c-Src [11]; [16]): induced activation
- protein carbonylation (protein carbonylation [13]; [16]): induced activation
